Patent publication US8211929B2, “Pyrimidine derivatives as kinase modulators and method of use” (Exelixis, Inc., priority 2004, dated 2012)

Tests used:
[1] = biological target: T1, (Homo sapiens, UniProt P08069); experiment: IGF1R kinase assay (LCCA), IGF 0P; type: biochemical
T1 construct: human IGF1R kinase domain residues M954-C1367; made in house; host or cells: baculovirus expression (insect cells)
How it was run: (§1)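 Baculovirus-expressed human IGF1R kinase domain (M954-C1367), 4 nM, with 3 μM ATP and 4 μM poly EY in Tris-HCl pH 7.5 buffer containing MgCl2 and MnCl2, 2 h at ambient temperature. Remaining ATP read by luciferase chemiluminescence; IC50 from 10-point dose-response fitted to a four-parameter equation.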

IGF 3P = biological target: T2, IGF 3P (Homo sapiens, UniProt P08069); experiment: IGF1R kinase assay (LCCA), IGF 3P; type: biochemical
T2 construct: human IGF1R kinase domain residues M954-C1367; made in house; host or cells: baculovirus expression (insect cells)
How it was run: as §1

T1 sequence (P08069 954-1367): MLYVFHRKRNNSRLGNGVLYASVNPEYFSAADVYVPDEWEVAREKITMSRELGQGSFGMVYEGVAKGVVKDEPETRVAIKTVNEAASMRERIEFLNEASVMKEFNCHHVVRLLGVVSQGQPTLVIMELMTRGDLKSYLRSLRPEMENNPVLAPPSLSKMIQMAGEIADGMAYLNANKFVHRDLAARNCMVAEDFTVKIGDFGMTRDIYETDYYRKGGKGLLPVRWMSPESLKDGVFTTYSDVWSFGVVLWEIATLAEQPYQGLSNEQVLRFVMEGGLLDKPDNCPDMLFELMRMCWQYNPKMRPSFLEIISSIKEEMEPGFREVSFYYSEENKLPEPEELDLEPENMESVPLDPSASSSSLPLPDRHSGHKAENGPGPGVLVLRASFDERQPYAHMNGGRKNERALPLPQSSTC
T2 sequence (P08069 954-1367): as above

IC50 [1] [nM]	IC50 (IGF 3P) [nM]	Compound
50 to 500	< 50	CN1CCN(c2cc(Nc3cc(C4CC4)n[nH]3)nc(NCc3cc(-c4cncnc4)no3)n2)CC1 [Example 642, N^4-(3-cyclopropyl-1H-pyrazol-5-yl)-6-(4-methylpiperazin-1-yl)-N^2-[(3-pyrimidin-5-ylisoxazol-5-yl)methyl]pyrimidine-2,4-diamine]
50 to 500	50 to 500	c1ncc(-c2cc(CNc3nc(Nc4cc(C5CC5)n[nH]4)cc(N4CCOCC4)n3)on2)cn1 [Example 643, N^4-(3-cyclopropyl-1H-pyrazol-5-yl)-6-morpholin-4-yl-N^2-[(3-pyrimidin-5-ylisoxazol-5-yl)methyl]pyrimidine-2,4-diamine]
50 to 500	< 50	Cc1cc(CNc2nc(Nc3cc(C4CC4)[nH]n3)cc(OCCN3CCCC3)n2)on1 [Example 647, N^4-(5-cyclopropyl-1H-pyrazol-3-yl)-N^2[(3-methylisoxazol-5-yl)methyl]-6-[(2-pyrrolidin-1-ylethyl)oxy]pyrimidine-2,4-diamine]
50 to 500	< 50	CN1CCN(c2cc(Nc3cc(C4CC4)[nH]n3)nc(NCc3cc(-c4nccs4)no3)n2)CC1 [Example 648, N^4-(5-cyclopropyl-1H-pyrazol-3-yl)-6-(4-methylpiperazin-1-yl)-N^2-{[3-(1,3-thiazol-2-yl)isoxazol-5-yl]methyl}pyrimidine-2,4-diamine]
500 to 5000	500 to 5000	Cc1cc(Nc2cc(OCCN(C)C)nc(NCc3cc(C)no3)n2)[nH]n1 [Example 650, 6-{[2-(dimethylamino)ethyl]oxy}-N^2-[(3-methylisoxazol-5-yl)methyl]-N^4-(3-methyl-1H-pyrazol-5-yl)pyrimidine-2,4-diamine]
50 to 500	< 50	CCc1cc(CNc2nc(Nc3cc(C4CC4)n[nH]3)cc(N3CCN(C)CC3)n2)on1 [Example 655, N^4-(3-cyclopropyl-1H-pyrazol-5-yl)-N^2-[(3-ethylisoxazol-5-yl)methyl]-6-(4-methylpiperazin-1-yl)pyrimidine-2,4-diamine]
50 to 500	< 50	CCc1cc(CNc2nc(Nc3cc(C4CC4)n[nH]3)cc(N3CCOCC3)n2)on1 [Example 656, N^4-(3-cyclopropyl-1H-pyrazol-5-yl)-N^2-[(3-ethylisoxazol-5-yl)methyl]-6-morpholin-4-ylpyrimidine-2,4-diamine]
50 to 500	< 50	CCc1cc(CNc2nc(Nc3cc(C4CC4)n[nH]3)cc(OCCN(C)C)n2)on1 [Example 657, N^4-(3-cyclopropyl-1H-pyrazol-5-yl)-6-{[2-(dimethylamino)ethyl]oxy}-N^2-[(3-ethylisoxazol-5-yl)methyl]pyrimidine-2,4-diamine]
50 to 500	50 to 500	CN1CCN(c2cc(Nc3cc(C4CC4)n[nH]3)nc(NCc3cc(-c4ccnc(N)n4)no3)n2)CC1 [Example 660, N^2-{[3-(2-aminopyrimidin-4-yl)isoxazol-5-yl]methyl}-N^4-(3-cyclopropyl-1H-pyrazol-5-yl)-6-(4-methylpiperazin-1-yl)pyrimidine-2,4-diamine]
50 to 500	< 50	CCN1CCN(c2cc(Nc3cc(C4CC4)n[nH]3)nc(NCc3cc(C(C)C)no3)n2)CC1 [Example 661, N^4-(3-cyclopropyl-1H-pyrazol-5-yl)-6-(4-ethylpiperazin-1-yl)-N^2-{[3-(1-methylethyl)isoxazol-5-yl]methyl}pyrimidine-2,4-diamine]
50 to 500	< 50	CC(C)c1cc(CNc2nc(Nc3cc(C4CC4)n[nH]3)cc(N3CCC(CCO)CC3)n2)on1 [Example 662, 2-(1-{6-[(3-cyclopropyl-1H-pyrazol-5-yl)amino]-2-({[3-(1-methylethyl)isoxazol-5-yl]methyl}amino)pyrimidin-4-yl}piperidin-4-yl)ethanol]
50 to 500	< 50	CC(C)c1cc(CNc2nc(Nc3cc(C4CC4)n[nH]3)cc(N3CCN(CCO)CC3)n2)on1 [Example 663, 2-(4-{6-[(3-cyclopropyl-1H-pyrazol-5-yl)amino]-2-({[3-(1-methylethyl)isoxazol-5-yl]methyl}amino)pyrimidin-4-yl}piperazin-1-yl)ethanol]
